Experiment: xn = mol fraction of the nth substance listed
Details: 101 kPa, Liquid; for mass density: Vibrating tube method

c1ccccc1 [benzene] + C1CCCCCCC1
x1 = 1
Details | mass density [kg/m3] | viscosity [mPa·s]
308.15 K | 862.9 | 0.5272
313.15 K | 857.7 | 0.4942

c1ccccc1 [benzene] + CCCCCCC
Details | mass density, 308.15 K [kg/m3] | mass density, 313.15 K [kg/m3] | viscosity, 308.15 K [mPa·s] | viscosity, 313.15 K [mPa·s]
x1 = 0.1099 | 683.6 | 679.4 | 0.3518 | 0.3342
x1 = 0.2052 | 695.3 | 691.1 | 0.3593 | 0.3356
x1 = 0.2896 | 706.6 | 702.4 | 0.3562 | 0.3387
x1 = 0.4212 | 726.5 | 722.1 | 0.3632 | 0.345
x1 = 0.5078 | 740.9 | 736.4 | 0.3724 | 0.3534
x1 = 0.6087 | 760 | 755.4 | 0.3925 | 0.3667
x1 = 0.7263 | 785.5 | 780.8 | 0.4094 | 0.3879
x1 = 0.7936 | 801.9 | 797.1 | 0.4262 | 0.4031
x1 = 0.8987 | 830.6 | 825.6 | 0.4734 | 0.4408
x1 = 1 | 862.9 | 857.7 | 0.5272 | 0.4942

c1ccccc1 [benzene] + CCc1ccccc1
x1 = 1
Details | mass density [kg/m3] | viscosity [mPa·s]
308.15 K | 862.9 | 0.5272
313.15 K | 857.7 | 0.4942

c1ccccc1 [benzene] + Cc1ccccc1
Details | mass density, 308.15 K [kg/m3] | mass density, 313.15 K [kg/m3] | viscosity, 308.15 K [mPa·s] | viscosity, 313.15 K [mPa·s]
x1 = 0.0403 | 853.1 | 848.6 | 0.4943 | 0.468
x1 = 0.1393 | 853.7 | 849.1 | 0.4998 | 0.4681
x1 = 0.2551 | 854.5 | 849.9 | 0.4968 | 0.4693
x1 = 0.3116 | 855 | 850.3 | 0.4968 | 0.469
x1 = 0.3863 | 855.7 | 850.9 | 0.4977 | 0.4705
x1 = 0.5033 | 856.6 | 851.8 | 0.503 | 0.4747
x1 = 0.6139 | 857.8 | 852.9 | 0.5078 | 0.4785
x1 = 0.7301 | 859.1 | 854.1 | 0.5166 | 0.4813
x1 = 0.8551 | 860.8 | 855.7 | 0.5227 | 0.487
x1 = 1 | 862.9 | 857.7 | 0.5272 | 0.4942

C1CCCCCCC1 [cyclooctane] + CCCCCCC
Details | mass density, 308.15 K [kg/m3] | mass density, 313.15 K [kg/m3] | viscosity, 308.15 K [mPa·s] | viscosity, 313.15 K [mPa·s]
x2 = 0 | 823.6 | 819.7 | 1.803 | 1.636
x2 = 0.0938 | 807.7 | 803.8 | 1.405 | 1.288
x2 = 0.1897 | 793 | 789.1 | 1.125 | 1.044
x2 = 0.2896 | 777.5 | 773.6 | 0.9246 | 0.8605
x2 = 0.3979 | 760.8 | 756.8 | 0.7613 | 0.7127
x2 = 0.4949 | 746.1 | 742.2 | 0.6608 | 0.6207
x2 = 0.5964 | 730.9 | 726.9 | 0.5725 | 0.5389
x2 = 0.6919 | 716.7 | 712.7 | 0.5028 | 0.4754
x2 = 0.7795 | 703.6 | 699.7 | 0.4487 | 0.4256
x2 = 0.8934 | 686.9 | 682.8 | 0.4002 | 0.3754

C1CCCCCCC1 [cyclooctane] + CCc1ccccc1
Details | mass density, 308.15 K [kg/m3] | mass density, 313.15 K [kg/m3] | viscosity, 308.15 K [mPa·s] | viscosity, 313.15 K [mPa·s]
x2 = 0 | 823.6 | 819.7 | 1.803 | 1.636
x2 = 0.0907 | 824.8 | 820.9 | 1.487 | 1.356
x2 = 0.2033 | 827.1 | 823.2 | 1.206 | 1.11
x2 = 0.3072 | 829.5 | 825.6 | 1.022 | 0.9578
x2 = 0.3701 | 831.2 | 827.2 | 0.9433 | 0.8765
x2 = 0.4761 | 834.2 | 830.2 | 0.8369 | 0.7835
x2 = 0.5798 | 837.5 | 833.4 | 0.7568 | 0.7089
x2 = 0.7008 | 841.7 | 837.6 | 0.6736 | 0.6403
x2 = 0.7922 | 845.1 | 840.9 | 0.6351 | 0.5979
x2 = 0.8908 | 849 | 844.8 | 0.5958 | 0.5629

C1CCCCCCC1 [cyclooctane] + Cc1ccccc1
Details | mass density, 308.15 K [kg/m3] | mass density, 313.15 K [kg/m3] | viscosity, 308.15 K [mPa·s] | viscosity, 313.15 K [mPa·s]
x2 = 0 | 823.6 | 819.7 | 1.803 | 1.636
x2 = 0.0997 | 824.6 | 820.7 | 1.443 | 1.326
x2 = 0.1951 | 826 | 822.1 | 1.198 | 1.112
x2 = 0.3032 | 828.1 | 824.1 | 1.003 | 0.9333
x2 = 0.3904 | 830 | 826 | 0.8748 | 0.8203
x2 = 0.4868 | 832.5 | 828.5 | 0.7834 | 0.701
x2 = 0.5898 | 835.6 | 831.4 | 0.6981 | 0.6579
x2 = 0.6919 | 839.2 | 834.9 | 0.6266 | 0.5912
x2 = 0.8003 | 843.4 | 839.1 | 0.5673 | 0.5364
x2 = 0.888 | 847.3 | 842.9 | 0.5361 | 0.5033

C1CCCCCCC1 [cyclooctane] + c1ccccc1
Details | mass density, 308.15 K [kg/m3] | mass density, 313.15 K [kg/m3] | viscosity, 308.15 K [mPa·s] | viscosity, 313.15 K [mPa·s]
x2 = 0 | 823.6 | 819.7 | 1.803 | 1.636
x2 = 0.1004 | 824.9 | 821 | 1.494 | 1.368
x2 = 0.1826 | 826.4 | 822.4 | 1.294 | 1.193
x2 = 0.3035 | 829 | 824.9 | 1.072 | 0.993
x2 = 0.408 | 831.9 | 827.6 | 0.9222 | 0.859
x2 = 0.5122 | 835.2 | 830.9 | 0.8085 | 0.7548
x2 = 0.5243 | 835.7 | 831.4 | 0.7963 | 0.7437
x2 = 0.6891 | 842.7 | 838.1 | 0.6667 | 0.6274
x2 = 0.7904 | 848.1 | 843.3 | 0.6042 | 0.5677
x2 = 0.9001 | 855.1 | 850.1 | 0.5651 | 0.5263

CCc1ccccc1 [ethylbenzene] + C1CCCCCCC1
x1 = 1
Details | mass density [kg/m3] | viscosity [mPa·s]
308.15 K | 853.7 | 0.5652
313.15 K | 849.5 | 0.5294

CCc1ccccc1 [ethylbenzene] + CCCCCCC
Details | mass density, 308.15 K [kg/m3] | mass density, 313.15 K [kg/m3] | viscosity, 308.15 K [mPa·s] | viscosity, 313.15 K [mPa·s]
x2 = 0 | 853.7 | 849.5 | 0.5652 | 0.5294
x2 = 0.1034 | 831.5 | 827.4 | 0.5217 | 0.4945
x2 = 0.2048 | 810.6 | 806.5 | 0.4925 | 0.4631
x2 = 0.2931 | 793 | 788.8 | 0.4625 | 0.4393
x2 = 0.3754 | 777.2 | 773 | 0.44 | 0.419
x2 = 0.488 | 756.3 | 752.2 | 0.4195 | 0.3986
x2 = 0.5929 | 737.7 | 733.6 | 0.4061 | 0.3807
x2 = 0.6899 | 720.9 | 716.7 | 0.3859 | 0.3669
x2 = 0.8051 | 701.8 | 697.7 | 0.369 | 0.3516
x2 = 0.8979 | 687.1 | 683 | 0.3659 | 0.3425

CCc1ccccc1 [ethylbenzene] + Cc1ccccc1
Details | mass density, 308.15 K [kg/m3] | mass density, 318.15 K [kg/m3] | viscosity, 308.15 K [mPa·s] | viscosity, 313.15 K [mPa·s]
x2 = 0 | 853.7 | 849.5 | 0.5652 | 0.5294
x2 = 0.0424 | 853.7 | 849.5 | 0.5587 | 0.5306
x2 = 0.128 | 853.7 | 849.4 | 0.5587 | 0.525
x2 = 0.2164 | 853.6 | 849.3 | 0.5471 | 0.5185
x2 = 0.2928 | 853.6 | 849.3 | 0.5408 | 0.5124
x2 = 0.393 | 853.5 | 849.2 | 0.5379 | 0.5186
x2 = 0.4922 | 853.4 | 849.1 | 0.5349 | 0.5022
x2 = 0.5716 | 853.4 | 849 | 0.5243 | 0.4968
x2 = 0.7107 | 853.2 | 848.8 | 0.5125 | 0.4853
x2 = 0.8425 | 853 | 848.6 | 0.5108 | 0.4781
